US10695337B2, “Piperidin-4-yl azetidine derivatives as JAK1 inhibitors” (Incyte Corporation, priority 2010, dated 2020)

Each compound was assayed against human JAK1 (a.a. 837-1142) (assay: In vitro JAK kinase assay (HTRF, phosphorylation of a biotinylated peptide), JAK1). Conditions: measured at 1 mM ATP; JAK2 IC50 / JAK1 IC50.
Format: biochemical
Procedure, shortened: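 N-terminal His-tagged catalytic domains, baculovirus-expressed in insect cells, phosphorylated a biotinylated peptide for 1 hr at room temperature. EDTA stop was followed by SA-APC and Eu-Py20 antibody for 40 minutes, with phosphopeptide read by HTRF.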

Row | IC50 Ratio JAK2/JAK1 | Structure (SMILES)
1 | 4.7 | N#CCC1(n2cc(-c3c(F)cnc4[nH]ccc34)cn2)CN(C2CCN(C(=O)c3ccc(O)c(F)c3)CC2)C1 [Example 322, {1-[1-(3-fluoro-4-hydroxybenzoyl)piperidin-4-yl]-3-[4-(5-fluoro-1H-pyrrolo[2,3-b]pyridin-4-yl)-1H-pyrazol-1-yl]azetidin-3-yl}acetonitrile]
2 | 5.0 | N#CCC1(n2cc(-c3c(F)cnc4[nH]ccc34)cn2)CN(C2CCN(C(=O)c3ccc(O)cc3F)CC2)C1 [Example 323, {1-[1-(2-fluoro-4-hydroxybenzoyl)piperidin-4-yl]-3-[4-(5-fluoro-1H-pyrrolo[2,3-b]pyridin-4-yl)-1H-pyrazol-1-yl]azetidin-3-yl}acetonitrile]
3 | 1.7 | N#CCC1(n2cc(-c3c(F)cnc4[nH]ccc34)cn2)CN(C2CCN(C(=O)c3cc(C(F)(F)F)ncc3Cl)CC2)C1 [Example 326, {1-{1-[5-chloro-2-(trifluoromethyl)isonicotinoyl]piperidin-4-yl}-3-[4-(5-fluoro-1H-pyrrolo[2,3-b]pyridin-4-yl)-1H-pyrazol-1-yl]azetidin-3-yl}acetonitrile]
4 | 4.1 | N#CCC1(n2cc(-c3c(F)cnc4[nH]ccc34)cn2)CN(C2CCN(C(=O)C3CCC(F)(F)CC3)CC2)C1 [Example 327, {1-{1-[(4,4-difluorocyclohexyl)carbonyl]piperidin-4-yl}-3-[4-(5-fluoro-1H-pyrrolo[2,3-b]pyridine-4-yl)-1H-pyrazol-1-yl]azetidin-3-yl}acetonitrile]
5 | 4.5 | N#CCC1(n2cc(-c3c(F)cnc4[nH]ccc34)cn2)CN(C2CCN(C(=O)Nc3ncccc3C(F)(F)F)CC2)C1 [Example 329, 4-{3-(cyanomethyl)-3-[4-(5-fluoro-1H-pyrrolo[2,3-b]pyridin-4-yl)-1H-pyrazol-1-yl]azetidin-1-yl}-N-[3-(trifluoromethyl)pyridin-2-yl]piperidine-1-carboxamide]
6 | 6.7 | N#CCC1(n2cc(-c3c(F)cnc4[nH]ccc34)cn2)CN(C2CCN(C(=O)Nc3cnccc3C(F)(F)F)CC2)C1 [Example 330, 4-{3-(cyanomethyl)-3-[4-(5-fluoro-1H-pyrrolo[2,3-b]pyridin-4-yl)-1H-pyrazol-1-yl]azetidin-1-yl}-N-[4-(trifluoromethyl)pyridin-3-yl]piperidine-1-carboxamide]
7 | 8.8 | N#CCC1(n2cc(-c3c(C#N)cnc4[nH]ccc34)cn2)CN(C2CCN(C(=O)c3cc(F)cc(C#N)c3)CC2)C1 [Example 333, 4-{1-[1-[1-(3-cyano-5-fluorobenzoyl)piperidin-4-yl]-3-(cyanomethyl)azetidin-3-yl]-1H-pyrazol-4-yl}-1H-pyrrolo[2,3-b]pyridine-5-carbonitrile]
8 | 4.3 | N#CCC1(n2cc(-c3c(C#N)cnc4[nH]ccc34)cn2)CN(C2CCN(C(=O)c3ccc(C#N)c(F)c3)CC2)C1 [Example 334, 4-{1-[1-[1-(4-cyano-3-fluorobenzoyl)piperidin-4-yl]-3-(cyanomethyl)azetidin-3-yl]-1H-pyrazol-4-yl}-1H-pyrrolo[2,3-b]pyridine-5-carbonitrile]

Second part, the compound before the results:

Row | Structure (SMILES) | IC50 Ratio JAK2/JAK1
9 | COc1ncccc1NC(=O)N1CCC(N2CC(CC#N)(n3cc(-c4ccnc5[nH]ccc45)cn3)C2)CC1 [Example 306, 4-{3-(cyanomethyl)-3-[4-(1H-pyrrolo[2,3-b]pyridin-4-yl)-1H-pyrazol-1-yl]azetidin-1-yl}-N-(2-methoxypyridin-3-yl)piperidine-1-carboxamide] | 3.5
10 | N#CCC1(n2cc(-c3ccnc4[nH]ccc34)cn2)CN(C2CCN(C(=O)Nc3ccncc3C(F)(F)F)CC2)C1 [Example 307, 4-{3-(cyanomethyl)-3-[4-(1H-pyrrolo[2,3-b]pyridin-4-yl)-1H-pyrazol-1-yl]azetidin-1-yl}-N-[3-(trifluoromethyl)pyridin-4-yl]piperidine-1-carboxamide] | 8.8
11 | N#CCC1(n2cc(-c3ccnc4[nH]ccc34)cn2)CN(C2CCN(C(=O)Nc3ccccc3F)CC2)C1 [Example 309, 4-{3-(cyanomethyl)-3-[4-(1H-pyrrolo[2,3-b]pyridin-4-yl)-1H-pyrazol-1-yl]azetidin-1-yl}-N-(2-fluorophenyl)piperidine-1-carboxamide] | 5.3
12 | N#CCC1(n2cc(-c3ccnc4[nH]ccc34)cn2)CN(C2CCN(C(=O)Nc3ccccc3Cl)CC2)C1 [Example 310, N-(2-chlorophenyl)-4-{3-(cyanomethyl)-3-[4-(1H-pyrrolo[2,3-b]pyridin-4-yl)-1H-pyrazol-1-yl]azetidin-1-yl}piperidine-1-carboxamide] | 9.0
13 | N#CCC1(n2cc(-c3ccnc4[nH]ccc34)cn2)CN(C2CCN(C(=O)Nc3ccc(C#N)cc3F)CC2)C1 [Example 312, N-(4-cyano-2-fluorophenyl)-4-{3-(cyanomethyl)-3-[4-(1H-pyrrolo[2,3-b]pyridin-4-yl)-1H-pyrazol-1-yl]azetidin-1-yl}piperidine-1-carboxamide] | 5.3
14 | N#CCC1(n2cc(-c3c(F)cnc4[nH]ccc34)cn2)CN(C2CCN(C(=O)c3ccnc(C(F)(F)F)c3F)CC2)C1 [Example 314, (3-[4-(5-Fluoro-1H-pyrrolo[2,3-b]pyridin-4-yl)-1H-pyrazol-1-yl]-1-{1-[3-fluoro-2-(trifluoromethyl)isonicotinoyl]piperidin-4-yl}azetidin-3-yl)acetonitrile] | 11.0
15 | N#CCC1(n2cc(-c3c(F)cnc4[nH]ccc34)cn2)CN(C2CCN(C(=O)c3cc(F)cc(C#N)c3)CC2)C1 [Example 316, 3-[(4-{3-(cyanomethyl)-3-[4-(5-fluoro-1H-pyrrolo[2,3-b]pyridin-4-yl)-1H-pyrazol-1-yl]azetidin-1-yl}piperidin-1-yl)carbonyl]-5-fluorobenzonitrile] | 9.5
16 | N#CCC1(n2cc(-c3c(F)cnc4[nH]ccc34)cn2)CN(C2CCN(C(=O)c3ccc(C#N)cc3F)CC2)C1 [Example 317, 4-[(4-{3-(cyanomethyl)-3-[4-(5-fluoro-1H-pyrrolo[2,3-b]pyridin-4-yl)-1H-pyrazol-1-yl]azetidin-1-yl}piperidin-1-yl)carbonyl]-3-fluorobenzonitrile] | 4.5
17 | N#CCC1(n2cc(-c3c(F)cnc4[nH]ccc34)cn2)CN(C2CCN(C(=O)c3ccc(F)c(C#N)c3)CC2)C1 [Example 318, 5-[(4-{3-(cyanomethyl)-3-[4-(5-fluoro-1H-pyrrolo[2,3-b]pyridin-4-yl)-1H-pyrazol-1-yl]azetidin-1-yl}piperidin-1-yl)carbonyl]-2-fluorobenzonitrile] | 4.7
18 | N#CCC1(n2cc(-c3c(F)cnc4[nH]ccc34)cn2)CN(C2CCN(C(=O)c3ccc(F)cn3)CC2)C1 [Example 319] | 4.0
19 | N#CCC1(n2cc(-c3c(F)cnc4[nH]ccc34)cn2)CN(C2CCN(C(=O)c3ccncc3F)CC2)C1 [Example 320, {1-[1-(3-fluoroisonicotinoyl)piperidin-4-yl]-3-[4-(5-fluoro-1H-pyrrolo[2,3-b]pyridin-4-yl)-1H-pyrazol-1-yl]azetidin-3-yl}acetonitrile] | 2.8
20 | N#CCC1(n2cc(-c3c(F)cnc4[nH]ccc34)cn2)CN(C2CCN(C(=O)c3c(F)cncc3F)CC2)C1 [Example 321, {1-[1-(3,5-difluoroisonicotinoyl)piperidin-4-yl]-3-[4-(5-fluoro-1H-pyrrolo[2,3-b]pyridin-4-yl)-1H-pyrazol-1-yl]azetidin-3-yl}acetonitrile] | 3.0
